Test results reported in patent US20220323402A1, “TREATMENT, AMELIORATION OR PREVENTION OF A VIRAL INFECTION” (priority 2019, published 2022).

Key:
ZIKV = assay: Effect of inhibitors of IFN signaling on ZIKV replication in HepG2 cells, plaque assay; assay type: cell-based, Zika virus; details: HepG2 pre-treated 24 h, plaque assay 24 h p.i.; FIG. 22
Experimental: HepG2 cells were pre-treated with DMSO (vehicle), JAK I Inhibitor, TSA, or NaF for 24 h and infected with ZIKV. Data represent the mean+s.e.m. from three independent experiments. P values were determined by a one-way ANOVA followed by Tukey's post-hoc test.
I3S (Indoxyl 3-sulfate, Sigma, used at 50-500 μM as indicated for each experiment), CH223191 (Tocris, used at 2-30 μM), Sodium fluoride (Sigma, 1 mM), Trichostatin A (Sigma, 100 nM), JAK I Inhibitor (Santa Cruz Biotechnology, 1 μM). HP163 was the generous gift of Hercules Pharmaceuticals, BV, (Galileiweg 8, 2333 BD, The Netherlands). CB7993113 has been described previously^80. HP163, is a monoalkylated amide of CB7993113 optimally formulated in a 5% tween, 45% PEG, 50% saline mixture. […] The structural formulas of the compounds used in this study are reproduced below.

AHR [1] = assay: AHR modulation in NPCs, qPCR of AHR, CYP1A1, IDO1 and TDO2; assay type: cell-based, human; details: at the concentrations tested; NPCs 24 h; FIGS. 10A-10D
Experimental: FIGS. 10A-10D: AHR modulation in NPCs. NPCs were treated with I3S or a combination of I3S and CH223191. 24 h after treatment, NPCs were harvested for RNA extraction followed by qPCR analysis of AHR (FIG. 10A), CYP1A1 (FIG. 10B), IDO1 (FIG. 100) and TDO2 (FIG. 10D). Data represent the mean+s.e.m. from three independent experiments. P values were determined by Student's t-test.
RNA was extracted using the RNAeasy kit (Qiagen). cDNA was synthesized using the High-Capacity cDNA Reverse Transcription kit (Applied Biosystems) and qPCR was performed using TaqMan Fast Advanced Master Mix (Applied Biosystems). Gene expression was normalized to GAPDH. Primers and probes (Applied Biosystems) were: GAPDH Hs02786624_g1, IFNB1 Hs01077958_s1, AHR Hs00169233_m1, PML Hs00971694_m1, CYP1A1 Hs01054796_g1, IFITM1 Hs00705137_s1, CYP1B1 Hs02382916_s1, CXCL10 Hs00171042_m1, IDO1 Hs00984148_m1, IDO2 Hs01589373_m1, IFITM Hs00705137_s1, TDO Hs00194611_m1. Primers and probes for the specific detection of Zika virus RNA were utilized as previously described^81, 82. For viral load determination in vivo, brains and spleens from pups were macerated on trizol (Invitrogen) for RNA extraction. RNA pellets were resuspended in RNase-free water and quantified by spectrophotometry (NanoDrop—Thermo Scientific) and stored at −80° C. […] Quantification was compared with threshold cycle (Ct) value with a ZIKV plasmid standard curve.

AHR [2] = assay: AHR modulation in A549 cells, qPCR of AHR and CYP1A1; assay type: cell-based; details: 24 h; FIG. 61
Experimental: FIGS. 61A and 61B: AHR modulation by small molecules in A549 cells. A549 cells were treated with the indicated concentrations of I3S (FIG. 61A) or CH223191 (FIG. 61B) for 24 h. Then, cells were harvested for RNA extraction and qPCR analysis of AHR and CYP1A1.

[3] = tested on: DENV-1, DENV-2, DENV-3, DENV-4; assay: DENV plaque assay of supernatants of A549 cells; assay type: cell-based, dengue virus; details: A549 pretreated 24 h, moi=0.1; FIG. 62
Experimental: FIG. 62: AHR activation boosts DENV replication. A549 cells were pretreated with the indicated concentrations of I3S for 24 h and infected with DENV-2 (moi=0.1). 48 h p.i. supernatants were harvested for plaque assay.
FIGS. 63A-63D: AHR modulation affects DENV replication. Infectious virus particles in the supernatants of A549 cells pre-treated with CH2213191 and infected with DENV-1 (FIG. 63A), DENV-2 (FIG. 63B), DENV-3 (FIG. 63C) or DENV-4 (FIG. 63D) (moi=0.1). At 24 h p.i. supernatants were harvested for plaque assay.

[4] = tested on: ZIKV (Puerto Rico strain, PRVABC59); assay: Flow cytometry quantification of HepG2 cells positive for Flavivirus antigen after ZIKV infection; assay type: cell-based, Zika virus; details: HepG2, ZIKV moi=1, 48 h; FIG. 7C
Experimental: FIGS. 7A-7K: AHR signaling boosts ZIKV replication in vitro. Flow cytometry quantification of HepG2 cells positive for Flavivirus antigen. HepG2 cells were pre-treated with different concentrations of I3S, CH223191 or DMSO (vehicle) and infected with ZIKV (moi=1) for 48 h. Plots shown are representative of one experiment. Bar graphs (FIG. 7C) represent the mean+s.e.m. of Flavivirus antigen positive cells from at least three independent experiments. P values were determined by a one-way ANOVA followed by Tukey's post-hoc test.
Stock solutions of I3S and CH223191 were prepared in DMSO, aliquoted and stored according to manufacturer's instructions. For CH223191, cells were pre-treated for 90 minutes and then used for further studies. For I3S, cells were pre-treated overnight.
Cells were fixed and permeabilized using Cytofix/Cytoperm (BD Biosciences). Secondary antibody for flow cytometry was phycoerythrin (PE) goat anti-mouse IgG (BD Biosciences) at a concentration of 1:200. Cells were analyzed on a Guava easyCyte flow cytometer and data was processed using FlowJo software.

Cell cultures = assay: Cell viability by MTT assay; assay type: cell-based; details: at the concentrations tested; FIGS. 9A-9B
Experimental: FIGS. 9A and 9B: Toxicity of I3S and CH223191. Cell viability after treatment for 24 h with different concentrations of I3S (FIG. 9A) and CH223191 (FIG. 9B) evaluated by MTT assay.
Cell cultures grown in 96-well plates were exposed for 48 h to serial two-fold compound dilutions, three wells for each concentration and viability was measured with 3-(4,5-dimethylthiazol-2-yl)-2,5-diphenyl tetrazolium bromide (MTT, Sigma-Aldrich).

Compound: JAK inhibitor I
- ZIKV replication in presence of drugs that block IFN-I signaling (ZIKV): increase

Compound: CC(/C=C/C(=O)NO)=C\[C@@H](C)C(=O)c1ccc(N(C)C)cc1 [trichostatin A]
- ZIKV replication in presence of drugs that block IFN-I signaling (ZIKV): increase

Compound: O=S(=O)(O)Oc1c[nH]c2ccccc12 [I3S, Indoxyl 3-sulfate]
- AHR inhibition / activation (AHR [1]): activation
- AHR activation in A549 cells (AHR [2]): activated
- yield of the four DENV serotypes [3]: increased
- percentage of HepG2 cells expressing viral antigen [4]: increased
- cytotoxic effects (Cell cultures): no cytotoxic effects were detected

Compound: [F-].[Na+] [NaF, Sodium fluoride]
- ZIKV replication in presence of drugs that block IFN-I signaling (ZIKV): increase
